Assays:
IRAK4 enzyme = IRAK4 enzyme (Homo sapiens (Human), UniProt Q9NWZ3); test: biochemical; assay type: biochemical; details: IRAK4 enzyme, TR-FRET (HTRF), 500 μM ATP
TNFα = test: cells; assay type: cell-based, human; details: Homo sapiens, Monocyte, LPS-stimulated human monocytes, TNFα content; read-out: EC50 TNF

Chain of IRAK4 enzyme (Q9NWZ3 whole entry): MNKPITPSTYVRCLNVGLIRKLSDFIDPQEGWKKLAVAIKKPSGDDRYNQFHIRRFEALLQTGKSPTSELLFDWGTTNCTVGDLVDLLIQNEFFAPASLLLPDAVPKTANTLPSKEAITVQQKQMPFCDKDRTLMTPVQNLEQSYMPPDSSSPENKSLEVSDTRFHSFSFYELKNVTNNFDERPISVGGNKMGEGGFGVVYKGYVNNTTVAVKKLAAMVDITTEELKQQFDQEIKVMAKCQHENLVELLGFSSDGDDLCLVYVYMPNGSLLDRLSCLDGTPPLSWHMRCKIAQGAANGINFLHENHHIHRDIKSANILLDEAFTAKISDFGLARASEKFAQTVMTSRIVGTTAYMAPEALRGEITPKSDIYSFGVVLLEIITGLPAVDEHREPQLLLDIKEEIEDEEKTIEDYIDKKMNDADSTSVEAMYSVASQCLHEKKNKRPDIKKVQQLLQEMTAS

Row | Structure (SMILES) | IC50 (IRAK4 enzyme) [nM] | EC50 (TNFα) [nM]
1 | CC(C)(O)[C@H](F)CNC(=O)c1cnc(-c2ccc3cc(C#N)cnn23)cc1Nc1cnc(-c2cnco2)nc1 [Example 641, (R)-6-(3-cyanopyrrolo[1,2-b]pyridazin-7-yl)-N-(2-fluoro-3-hydroxy-3-methylbutyl)-4-((2-(oxazol-5-yl)pyrimidin-5-yl)amino)nicotinamide] | < 1 | 21
2 | CC(C)(O)[C@H](F)CNC(=O)c1cnc(-c2ccc3cc(C#N)cnn23)cc1N[C@H]1CC[C@H](c2nncs2)CC1 [Example 642, 4-(((1r,4R)-4-(1,3,4-thiadiazol-2-yl)cyclo-hexyl)amino)-6-(3-cyanopyrrolo[1,2-b]pyridazin-7-yl)-N-((R)-2-fluoro-3-hydroxy-3-methylbutyl)nicotinamide] | < 1 | 13
3 | CC(C)Nc1cc(-c2ccc3cc(C#N)cnn23)ncc1C(=O)NC[C@@H](F)C1(O)CC1 [Example 643, (R)-6-(3-cyanopyrrolo[1,2-b]pyridazin-7-yl)-N-(2-fluoro-2-(1-hydroxycyclo-propyl)ethyl)-4-(isopropyl-amino)nicotinamide] | < 1 | 8
4 | Cc1ncc(C2CCC(Nc3cc(-c4ccc5cc(C#N)cnn45)ncc3C(=O)NC[C@@H](F)C(C)(C)O)CC2)o1 (stereo partly drawn) [Example 644, (R)-6-(3-cyanopyrrolo[1,2-b]pyridazin-7-yl)-N-(2-fluoro-3-hydroxy-3-methylbutyl)-4-((4-(2-methyloxazol-5-yl)cyclo-hexyl)amino)nicotinamide] | 1 | 36
5 | CC(C)(O)[C@H](F)CNC(=O)c1cnc(-c2ccc3cc(C#N)cnn23)cc1Nc1ccc2c(N)n[nH]c2c1 [Example 647, (R)-4-((3-amino-1H-indazol-6-yl)amino)-6-(3-cyanopyrrolo[1,2-b]pyridazin-7-yl)-N-(2-fluoro-3-hydroxy-3-methyl-butyl)nicotinamide] | < 1 | 48
6 | COCc1ccc(Nc2cc(-c3ccc4cc(C#N)cnn34)ncc2C(=O)NC[C@@H](F)C(C)(C)O)cc1 [Example 648, (R)-6-(3-cyanopyrrolo[1,2-b]pyridazin-7-yl)-N-(2-fluoro-3-hydroxy-3-methylbutyl)-4-((4-(methoxymethyl)phenyl)amino)nicotinamide] | 1 | 51
7 | CC(C)(O)[C@H](F)CNC(=O)c1cnc(-c2ccc3cc(C#N)cnn23)cc1Nc1ccc(OC2COC2)nc1 [Example 649, (R)-6-(3-cyanopyrrolo[1,2-b]pyridazin-7-yl)-N-(2-fluoro-3-hydroxy-3-methylbutyl)-4-((6-(oxetan-3-yloxy)pyridin-3-yl)amino)nicotinamide] | 21 | > 10000
8 | CC(C)(O)[C@H](F)CNC(=O)c1cnc(-c2ccc3cc(C#N)cnn23)cc1Nc1ccc2c(c1)CC(=O)N2 [Example 650, (R)-6-(3-cyanopyrrolo[1,2-b]pyridazin-7-yl)-N-(2-fluoro-3-hydroxy-3-methylbutyl)-4-((2-oxo-indolin-5-yl)amino) nicotinamide] | < 1 | 16
9 | CC(C)(O)[C@H](F)CNC(=O)c1cnc(-c2ccc3cc(C#N)cnn23)cc1Nc1ccc2c(c1)OC(F)(F)O2 [Example 651, (R)-6-(3-cyanopyrrolo[1,2-b]pyridazin-7-yl)-4-((2,2-difluorobenzo[d][1,3]dioxol-5-yl)amino)-N-(2-fluoro-3-hydroxy-3-methylbutyl) nicotinamide] | 5 | 188
10 | CN1C(=O)C(C)(C)c2ccc(Nc3cc(-c4ccc5cc(C#N)cnn45)ncc3C(=O)NC[C@@H](F)C(C)(C)O)cc21 [Example 652, (R)-6-(3-cyanopyrrolo[1,2-b]pyridazin-7-yl)-N-(2-fluoro-3-hydroxy-3-methylbutyl)-4-((1,3,3-trimethyl-2-oxoindolin-6-yl)amino)nicotinamide] | 2 | 188
11 | CC1(C)C(=O)Nc2ccc(Nc3cc(-c4ccc5cc(C#N)cnn45)ncc3C(=O)NC[C@@H](F)C(C)(C)O)cc21 [Example 653, (R)-6-(3-cyanopyrrolo[1,2-b]pyridazin-7-yl)-4-((3,3-dimethyl-2-oxoindolin-5-yl)amino)-N-(2-fluoro-3-hydroxy-3-methylbutyl) nicotinamide] | 3 | 201
12 | CC(C)(O)[C@H](F)CNC(=O)c1cnc(-c2ccc3cc(C#N)cnn23)cc1N[C@H]1C[C@H](CNC(=O)OCC(F)(F)F)C1 [Example 654, 2,2,2-trifluoroethyl (((1R,3r)-3-((2-(3-cyanopyrrolo[1,2-b]pyridazin-7-yl)-5-(((R)-2-fluoro-3-hydroxy-3-methylbutyl)carbamoyl)pyridin-4-yl)amino)cyclo-butyl)methyl)carbamate] | < 1 | 15
13 | CC(C)(O)[C@H](F)CNC(=O)c1cnc(-c2ccc3cc(C#N)cnn23)cc1N[C@H]1C[C@H](CNC(=O)CC(F)(F)F)C1 [Example 655, 6-(3-cyanopyrrolo[1,2-b]pyridazin-7-yl)-N-((R)-2-fluoro-3-hydroxy-3-methylbutyl)-4-(((1r,3R)-3-((3,3,3-trifluoropropan-amido)methyl)cyclobutyl)amino)nicotinamide] | < 1 | 27
14 | CC(C)(O)[C@H](F)CNC(=O)c1cnc(-c2ccc3cc(C#N)cnn23)cc1N[C@H]1C[C@H](CNC(=O)CC(F)F)C1 [Example 656, 6-(3-cyanopyrrolo[1,2-b]pyridazin-7-yl)-4-(((1r,3R)-3-((3,3-difluoropropanamido)methyl)cyclobutyl)amino)-N-((R)-2-fluoro-3-hydroxy-3-methylbutyl) nicotinamide] | < 1 | 40
15 | CC(C)(O)[C@H](F)CNC(=O)c1cnc(-c2ccc3cc(C#N)cnn23)cc1Nc1ccc(N)nc1 [Example 657, (R)-4-((6-aminopyridin-3-yl)amino)-6-(3-cyano-pyrrolo[1,2-b]pyridazin-7-yl)-N-(2-fluoro-3-hydroxy-3-methylbutyl)nicotinamide] | < 1 | 23
16 | CC(C)(O)[C@H](F)CNC(=O)c1cnc(-c2ccc3cc(C#N)cnn23)cc1Nc1cnc(N)nc1 [Example 658, (R)-4-((2-aminopyrimidin-5-yl)amino)-6-(3-cyano-pyrrolo[1,2-b]pyridazin-7-yl)-N-(2-fluoro-3-hydroxy-3-methylbutyl)nicotinamide] | < 1 | 37
17 | CC(C)(O)[C@H](F)CNC(=O)c1cnc(-c2ccc3cc(C#N)cnn23)cc1N[C@H]1C[C@H](CNC(=O)[C@@H]2C[C@H]2F)C1 [Example 659, 6-(3-cyanopyrrolo[1,2-b]pyridazin-7-yl)-N-((R)-2-fluoro-3-hydroxy-3-methylbutyl)-4-(((1S,3R)-3-(((1S,2R)-2-fluoro-cyclopropane-1-carbox-amido)methyl)cyclobutyl)amino)nicotinamide] | < 1 | 16
18 | Cc1n[nH]c2cc(Nc3cc(-c4ccc5cc(C#N)cnn45)ncc3C(=O)NC[C@@H](F)C(C)(C)O)ccc12 [Example 660, (R)-6-(3-cyanopyrrolo[1,2-b]pyridazin-7-yl)-N-(2-fluoro-3-hydroxy-3-methylbutyl)-4-((3-methyl-1H-indazol-6-yl)amino) nicotinamide] | 1 | 64
19 | CNc1ccc(Nc2cc(-c3ccc4cc(C#N)cnn34)ncc2C(=O)NC[C@@H](F)C(C)(C)O)cn1 [Example 661, (R)-6-(3-cyanopyrrolo[1,2-b]pyridazin-7-yl)-N-(2-fluoro-3-hydroxy-3-methylbutyl)-4-((6-(methylamino)pyridin-3-yl)amino)nicotinamide] | < 1 | 19
20 | CC(=O)Nc1ccc(Nc2cc(-c3ccc4cc(C#N)cnn34)ncc2C(=O)NC[C@@H](F)C(C)(C)O)cn1 [Example 662, (R)-4-((6-acetamido-pyridin-3-yl)amino)-6-(3-cyanopyrrolo[1,2-b]pyridazin-7-yl)-N-(2-fluoro-3-hydroxy-3-methylbutyl)nicotinamide] | < 1 | 12
21 | COCCOc1ncc(Nc2cc(-c3ccc4cc(C#N)cnn34)ncc2C(=O)NC[C@@H](F)C(C)(C)O)cn1 [Example 663, (R)-6-(3-cyanopyrrolo[1,2-b]pyridazin-7-yl)-N-(2-fluoro-3-hydroxy-3-methylbutyl)-4-((2-(2-methoxyethoxy)pyrimidin-5-yl)amino)nicotinamide] | < 1 | 52
22 | CC(C)(O)[C@H](F)CNC(=O)c1cnc(-c2ccc3cc(C#N)cnn23)cc1Nc1ccc(CO)nc1 [Example 664, (R)-6-(3-cyanopyrrolo[1,2-b]pyridazin-7-yl)-N-(2-fluoro-3-hydroxy-3-methylbutyl)-4-((6-(hydroxymethyl)pyridin-3-yl)amino)nicotinamide] | < 1 | 14
23 | CC(C)(O)[C@H](F)CNC(=O)c1cnc(-c2ccc3cc(C#N)cnn23)cc1Nc1ccc2c(c1)C1(CC1)C(=O)N2 [Example 665, (R)-6-(3-cyanopyrrolo[1,2-b]pyridazin-7-yl)-N-(2-fluoro-3-hydroxy-3-methylbutyl)-4-((2′-oxospiro[cyclopropane-1,3′-indolin]-5′-yl)amino)nicotinamide] | 8 | 299
24 | CC(C)(O)[C@H](F)CNC(=O)c1cnc(-c2ccc3cc(C#N)cnn23)cc1Nc1cnc(C2CC2)nc1 [Example 666, (R)-6-(3-cyanopyrrolo[1,2-b]pyridazin-7-yl)-4-((2-cyclopropylpyrimidin-5-yl)amino)-N-(2-fluoro-3-hydroxy-3-methylbutyl) nicotinamide] | < 1 | 30
25 | COc1ccc(Nc2cc(-c3ccc4cc(C#N)cnn34)ncc2C(=O)NC[C@@H](F)C(C)(C)O)nc1 [Example 667, (R)-6-(3-cyanopyrrolo[1,2-b]pyridazin-7-yl)-N-(2-fluoro-3-hydroxy-3-methylbutyl)-4-((5-methoxypyridin-2-yl)amino)nicotinamide] | < 1 | 45

Reference: patent US10336762B2 (priority 2017, dated 2019)
